Measurements from US10426773B2, “Systems pharmacology for treating ocular disorders” (Case Western Reserve Univeristy, priority 2011, dated 2019).
Where a name gives a salt, the structure may show the parent alone.

Legend:
Abca4−/−Rdh8−/− mice [1] = experiment: Bright light-induced retinal degeneration in Abca4−/−Rdh8−/− mice, retinal histology and immunohistochemistry; format: in vivo, mouse; conditions: pretreatment before light 10,000 lux 30 min; 7-10 days after light exposure
Outline: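 Eye cups fixed in 4% paraformaldehyde (with 2% glutaraldehyde for Epon, 1 μm toluidine blue sections) or cryosectioned at 12 μm for IHC of rhodopsin, PNA and DAPI; paraffin 5 μm sections H&E-stained for gross histology, examined by light microscopy.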

[2] = target: T1, Dopamine D1 receptor (D1R) (Homo sapiens, UniProt P21728); experiment: BRET assay for G protein activation in live cells, D1R-Gs; format: cell-based; conditions: for antagonistic activity on D1R (inhibition of BRET signal): preincubation with ligand, then 1 μM dopamine
T1 construct: host or cells: HEK293T/17
T1 sequence (P21728 whole entry): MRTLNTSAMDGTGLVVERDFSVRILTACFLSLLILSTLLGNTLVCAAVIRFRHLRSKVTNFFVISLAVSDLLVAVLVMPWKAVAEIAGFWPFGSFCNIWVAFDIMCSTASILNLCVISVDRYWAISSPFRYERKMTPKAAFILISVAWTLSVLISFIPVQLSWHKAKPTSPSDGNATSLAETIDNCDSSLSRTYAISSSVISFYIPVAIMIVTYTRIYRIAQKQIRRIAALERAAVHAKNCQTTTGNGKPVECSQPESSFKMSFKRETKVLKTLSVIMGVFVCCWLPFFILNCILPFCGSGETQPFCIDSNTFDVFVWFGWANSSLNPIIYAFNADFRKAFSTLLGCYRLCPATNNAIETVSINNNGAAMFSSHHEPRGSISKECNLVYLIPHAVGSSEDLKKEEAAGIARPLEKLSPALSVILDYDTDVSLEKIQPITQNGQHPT
Text: (§1) FIGS. 35(A-C) illustrate characterizing the activity of BRM, MTP, DOX, and TAM on dopamine and adrenaline receptors (A) Schematic representation of the BRET assay used to evaluate actions of drugs on selected GPCRs. […] The free Venus-Gβγ then interacts with the Gβγ-effector mimetic masGRK3ct-Nluc to produce the BRET signal. GDP, guanosine diphosphate; GRK, G protein-coupled receptor kinase; Nluc, nanoluciferase. (B) Left: Representative BRET signal traces recorded upon activation of D4R with indicated drugs in cells expressing Gαo and Venus-Gβγ, illustrating the agonism assay. Right: Representative traces of D2R responses to 1 μM dopamine in the absence (control) or presence of indicated drugs, illustrating antagonism assay. Note that, in the antagonism assay shown, the black trace overlaps with the red trace and therefore is not visible. (C) Top: Quantification of agonistic activity of ligands on D2R, D4R, D1R, and ADRA1A. D2R-GO, D4R-GO, D1R-Gs, and ADRA1A-Gq signaling were reconstituted in HEK293T/17 cells by transient transfection separately. Maximum amplitudes induced by dopamine (DA; 100 μM), noradrenaline (NA; 100 μM), BRM (25 μM), MTP (100 μM), DOX (50 μM), and TAM (100 μM) were plotted as bar graphs. […] The activity is plotted as percent inhibition. Data are means±SD. Results are representative of two independent experiments each performed with 12 replicates.
(§2) Dopamine D1, dopamine D4, and α1A-adrenergic receptors were purchased from cDNA Resource Center (Bloomsburg University, Bloomsburg, Pa.). Plasmid encoding the Flag-tagged, long isoform of the D2 dopamine receptor was a gift from A. Kovoor (University of Rhode Island). pCMV5 plasmids encoding GαoA were gifts from H. Itoh (Nara Institute of Science and Technology, Japan). Plasmids encoding Venus 156-239-Gβ1 and Venus 1-155-Gγ2 were gifts from N. Lambert (Georgia Regents University). Plasmids encoding RGS9-2, Gβ5S, R7BP, and masGRK3ct-Nluc were previously described.
(§3) BRET experiments were performed as previously reported with slight modifications. […] BRET measurements were performed using a microplate reader (POLARstar Omega, BMG Labtech) equipped with two emission photomultiplier tubes. […] The BRET signal is determined by calculating the ratio of the light emitted by Gβ1γ2-Venus (535 nm) over the light emitted by masGRK3ct-Nluc (475 nm). The average baseline value recorded before agonist stimulation was subtracted from BRET signal values, and the resulting difference (ABRET ratio) was obtained.
(§4) We used a real-time kinetic assay in which G protein activation by GPCRs is quantified by monitoring changes in the bioluminescence resonance energy transfer (BRET) signal between Venus-tagged Gβγ and its luciferase-tagged reporter in living cells (FIG. 35A). […]

Abca4−/−Rdh8−/− mice [3] = experiment: Bright light-induced retinal degeneration in Abca4−/−Rdh8−/− mice, SLO autofluorescence imaging; format: in vivo, mouse; conditions: pretreatment before light 10,000 lux 30 min; SLO 8-9 days after light exposure
Method: SLO (Heidelberg Engineering, Heidelberg, Germany) was carried out for whole fundus imaging of mouse retinas. Mice were anesthetized by intraperitoneal injection of anesthetic cocktail indicated above, which was followed by pupil dilation using 1% tropicamide prior to SLO imaging under autofluorescence mode.
SLO (Heidelberg Engineering) was carried out for in vivo whole fundus imaging of mouse retinas. […] Numbers of autofluorescent spots were counted and subjected to statistical analyses as described below.
SLO (Heidelberg Engineering) was carried out for whole fundus imaging of mouse retinas in vivo. Mice were anesthetized, and their pupils were dilated as described above. SLO images were then acquired in the autofluorescence mode.

[4] = system: retinal transcriptome of Abca4−/−Rdh8−/− mice; experiment: RNA-seq retinal transcriptome of pretreated, light-exposed Abca4−/−Rdh8−/− mice (differential expression, Pearson, GSEA); format: in vivo, mouse; conditions: for NES, CHEMOKINE SIGNALING gene set / NES, CYTOKINE- RECEPTOR INTERACTIO gene set / NES, P53 gene set / NES, TOLL-LIKE SIGNALING gene set / NES, APOPTOSIS gene set: GSEA, vehicle-treated light-exposed retinas against drug-treated; for NES, APOPTOSIS gene set: P in brackets not reported here; for number of light-up-regulated gene sets significantly down-regulated (GSEA): of 44 gene sets up-regulated by light, mono doses BRM 1, MTP 10, TAM 2.5, DOX 10 mg/kg bw
[5] = target: T2, α1A-adrenergic receptor (ADRA1A) (Homo sapiens, UniProt P35348); experiment: BRET assay for G protein activation in live cells, ADRA1A-Gq; format: cell-based; conditions: for antagonistic activity on ADRA1A (inhibition of BRET signal): preincubation with ligand, then 1 μM noradrenaline
T2 construct: host or cells: HEK293T/17
T2 sequence (P35348 1-466): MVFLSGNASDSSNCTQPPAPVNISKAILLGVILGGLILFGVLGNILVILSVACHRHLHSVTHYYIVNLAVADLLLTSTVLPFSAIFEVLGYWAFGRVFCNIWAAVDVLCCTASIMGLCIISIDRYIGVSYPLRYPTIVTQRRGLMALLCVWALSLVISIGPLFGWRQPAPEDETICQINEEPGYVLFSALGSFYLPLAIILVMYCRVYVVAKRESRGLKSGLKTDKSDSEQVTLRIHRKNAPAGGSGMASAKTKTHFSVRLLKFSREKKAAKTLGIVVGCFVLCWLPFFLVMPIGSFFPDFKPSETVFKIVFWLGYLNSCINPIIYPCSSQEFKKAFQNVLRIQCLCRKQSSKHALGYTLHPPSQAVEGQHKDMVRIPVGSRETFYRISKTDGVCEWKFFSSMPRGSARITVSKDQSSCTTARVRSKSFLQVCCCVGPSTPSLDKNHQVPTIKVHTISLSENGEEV
Text: as §1, §2, §3, §4

[6] = HEK293T/17 cells, BRM 25 μM, MTP 100 μM, DOX 50 μM, TAM 100 μM

SMILES | retinal histology / immunohistochemistry (rhodopsin, PNA, DAPI; ONL) (Abca4−/−Rdh8−/− mice [1]) | antagonistic activity on D1R (inhibition of BRET signal) [2] | retinal autofluorescence spots by SLO imaging (Abca4−/−Rdh8−/− mice [3]) | NES, CHEMOKINE SIGNALING gene set [4] | NES, CYTOKINE- RECEPTOR INTERACTIO gene set [4] | NES, P53 gene set [4] | NES, TOLL-LIKE SIGNALING gene set [4] | NES, APOPTOSIS gene set [4] | number of light-up-regulated gene sets significantly down-regulated (GSEA) [4] [gene sets] | antagonistic activity on ADRA1A (inhibition of BRET signal) [5] | agonistic activity on D1R (BRET signal) [2, 6] | preservation of retinal gene expression pattern (in words) ([4]; retinas 1 day after light exposure) | agonistic activity on ADRA1A (BRET signal) [5, 6]
COc1cc2nc(N3CCN(C(=O)C4COc5ccccc5O4)CC3)nc(N)c2cc1OC.CS(=O)(=O)O (stereo not drawn) [Doxazosin] | substantially preserved photoreceptor morphology | partial antagonistic effect | significantly protected retinas from developing light-induced damage | 1.41 | 2.42 | 2.18 | 1.99 | 1.75 | 28 | full antagonist | – | – | –
COCCc1ccc(OCC(O)CNC(C)C)cc1 (stereo not drawn) [MTP, metoprolol tartrate] | preservation of the ONL and photoreceptor cells | no agonistic or antagonistic effects | lacked these autofluorescent spots | 1.44 | 2.30 | 2.04 | 2.05 | 1.61 | 36 | no agonistic or antagonistic effects | no agonistic or antagonistic effects | conferred the most protection | no agonistic or antagonistic effects
CCOc1ccccc1OCCN[C@H](C)Cc1ccc(OC)c(S(N)(=O)=O)c1.Cl [Tamsulosin] | substantially preserved photoreceptor morphology | partial antagonist | significantly protected retinas from developing light-induced damage | 1.39 | 2.29 | 1.98 | 1.83 | 1.60 | 32 | antagonistic activity | – | – | –
